Source: patent publication US11738091B2, “Method for terminating cancer cells with an azole-based compound” (Imam Abdulrahman Bin Faisal University, priority 2019, dated 2023)

How the values were obtained:
[1] = test system: HCT-116 cells; test: MTT assay of cancer cell viability; conditions: for attenuating cancer cells proliferation (in words) / effect on cancer cell survivability (in words) / comparison among the five conjugates in decreasing cancer cells proliferation: HCT-116; for dose dependence of effect on cancer cells viability: HCT-116, MTT staining; for comparison among the five conjugates in decreasing cancer cells proliferation: versus Conj. 1, Conj. 2 and Conj. 5
Method: CANCER CELL TREATMENTS: Human colorectal carcinoma cells (HCT-116) cells were grown according to a method described in Khan, F. A.; Akhtar, S.; Almohazey, D.; Alomari, M.; Almofty, S. A.; Eliassari, A. “Fluorescent magnetic submicronic polymer (FMSP) nanoparticles induce cell death in human colorectal carcinoma cells” Artif Artif. Cells, Nanomed., Biotechnol. 2018, (doi: 10.1080/21691401.2018.1491476). HCT-116 cells were grown in Dulbecco Modified Eagle Medium (DMEM), 10% fetal bovine serum, L-glutamine, selenium chloride, penicillin, and streptomycin. The cells were cultured in a CO2 incubator (Heracell 150i, Thermo-scientific, USA) at 37° C. under 5% CO2 for 48 to 72 hours. Confluenced cells were seeded into 96-well cell plates and, once the cells became 80% confluenced, the cancer cells were treated with different concentrations ([…]) of Conj. 1, Conj. 2, Conj. 3, Conj. 4, Conj. 5 respectively. […] Each sample was taken in triplicate to obtain a statistical analysis.
CANCER CELLS VIABILITY BY MTT ASSAY: To examine effect of Conj. 1, Conj. 2, Conj. 3, Conj. 4, Conj. 5 on cancer cells, a 3-(4,5-dimethylthiazol-2-yl)-2,5-diphenyltetrazolium bromide (MTT) assay was conducted on the cells. The cancer cells were seeded at 6×10^4 cells/mL concentration in 96-well culture plates containing DMEM, 10% Fetal bovine serum, penicillin, and streptomycin and were incubated in CO2 incubator until the cells were 80% confluenced. The cancer cells were then treated with Conj. 1, Conj. 2, Conj. 3, Conj. 4, Conj. 5 at concentrations of 1.3, 3.26, and 6.5 mg/mL, whereby no conjugate was added in the control groups. A 5.0 mg/mL MTT solution was added into each well, and the cells were again incubated for 4 hours in the CO2 incubator and finally media was changed with the addition of DMSO. The samples were then measured using an ELISA plate reader (Biotek Instruments, USA) at wavelength 570 nm.
The following formula was used to calculate percentage of cell viability: % of Cell viability=[Optical density (O.D) of Conj. 1, Conj. 2, Conj. 3, Conj. 4, or Conj. 5 cells]/[Optical density (O.D) of control cells]×100.
1, Conj. 2, Conj. 3, Conj. 4, Conj. 5 treated groups were calculated. All statistical analyses were completed with GraphPad Prism 6 (GraphPad Software). The difference between control and Conj. 1, Conj. 2, Conj. 3, Conj. 4, Conj. 5 groups by a one-way ANOVA test (*p<0.05, **p<0.01; ***p<0.001) was taken as statistically significant.

[2] = test system: HCT-116 cells; test: Cancer cell morphology by inverted microscope; assay type: cell-based, human; conditions: 48 hours, 200x magnification
Excerpt: Cells, Nanomed., Biotechnol. 2018, (doi: 10.1080/21691401.2018.1491476). […] 1, Conj. 2, Conj. 3, Conj. 4, Conj. 5 respectively.
CANCER CELL MORPHOLOGY: After the treating the HTC-116 cells with Conj. 1, Conj. 2, Conj. 3, Conj. 4, Conj. 5, the cells were observed using an inverted microscope (TS100F Eclipse, Nikon, Japan) to evaluate the anatomical and morphological changes.

In the case of SiO2-3GPS-Atet [Conj. 3], the “attenuating cancer cells proliferation (in words)” value [1] is reported as “highly effective”, the “effect on cancer cell survivability (in words)” value (from here on “effect … (in words)”) [1] is reported as “profound effects” and the “dose dependence of effect on cancer cells viability” value (from here on “dose dependence of effect”) [1] is reported as “dose dependent effects”. For the same substance, the “comparison among the five conjugates in decreasing cancer cells proliferation” value [1] was “more effective”, the cancer cell morphology ([2]; HCT-116, 1.3 mg/mL) was “significant levels of nucleus condensation and nuclear augmentation” and the cancer cell morphology ([2]; HCT-116, 3.26 mg/mL) was “nuclear condensation and augmentation of cancer cells”. The cancer cell morphology ([2]; HCT-116, 6.5 mg/mL) was “significant loss of cell population”.

For SiO2-3GPS-Atri [Conj. 2], the “attenuating cancer cells proliferation (in words)” value [1] was “highly effective”, the “effect … (in words)” value [1] was “profound effects” and the “dose dependence of effect” value [1] was “dose dependent effects”. The cancer cell morphology ([2]; HCT-116, 1.3 mg/mL) was “strong nucleus condensation and nuclear augmentation”, the cancer cell morphology ([2]; HCT-116, 3.26 mg/mL) was “further nucleus condensation and augmentation” and the cancer cell morphology ([2]; HCT-116, 6.5 mg/mL) was “significant loss of cell population”.

In the case of SiO2-3GPS-Btri [Conj. 4], the “attenuating cancer cells proliferation (in words)” value [1] is reported as “highly effective”, the “effect … (in words)” value [1] is reported as “profound effects” and the “dose dependence of effect” value [1] is reported as “dose dependent effects”. The “comparison among the five conjugates in decreasing cancer cells proliferation” value [1] was “more effective”, the cancer cell morphology ([2]; HCT-116, 1.3 mg/mL) was “disintegration of cancer cell bodies” and the cancer cell morphology ([2]; HCT-116, 3.26 mg/mL) was “strong nuclear condensation and augmentation”. The cancer cell morphology ([2]; HCT-116, 6.5 mg/mL) was “strong nuclear condensation and augmentation”.

SiO2-3GPS-Imi [Conj. 5] was tested, and the “attenuating cancer cells proliferation (in words)” value [1] was “highly effective”, the “effect … (in words)” value [1] was “profound effects” and the “dose dependence of effect” value [1] was “dose dependent effects”. For the same substance, the cancer cell morphology ([2]; HCT-116, 1.3 mg/mL) was “high levels of nucleus condensation and nuclear augmentation”, the cancer cell morphology ([2]; HCT-116, 3.26 mg/mL) was “strong nuclear condensation and augmentation and the beginning of cell membrane disruption and cell death” and the cancer cell morphology ([2]; HCT-116, 6.5 mg/mL) was “significant loss of cell population”.

For SiO2-3GPS-Tri [Conj. 1], the “attenuating cancer cells proliferation (in words)” value [1] was “highly effective”, the “effect … (in words)” value [1] was “profound effects” and the “dose dependence of effect” value [1] was “dose dependent effects”. For the same substance, the cancer cell morphology ([2]; HCT-116, 1.3 mg/mL) was “strong nucleus condensation and nuclear augmentation”, the cancer cell morphology ([2]; HCT-116, 3.26 mg/mL) was “further nucleus condensation and augmentation” and the cancer cell morphology ([2]; HCT-116, 6.5 mg/mL) was “significant loss of cell population”.
